Reference: ChEMBL document CHEMBL5727777, “Piperidin-4-yl azetidine derivatives as JAK1 inhibitors” (2020)

Target: Tyrosine-protein kinase JAK1 (Homo sapiens, UniProt P23458)
Experiment: In vitro JAK Kinase Assay: The catalytic domains of human JAK1 (a.a. 837-1142), Jak2 (a.a. 828-1132) and Jak3 (a.a. 781-1124) with an N-terminal His tag were expressed using baculovirus in insect cells and purified. The catalytic activity of JAK1, JAK2 or JAK3 was assayed by measuring the phosphorylation of a biotinylated peptide. The phosphorylated peptide was detected by homogenous time resolved fluorescence (HTRF). […] Reactions were carried out at room temperature for 1 hr and then stopped with 20 μL 45 mM EDTA, 300 nM SA-APC, 6 nM Eu-Py20 in assay buffer (Perkin Elmer, Boston, Mass.). Binding to the Europium labeled antibody took place for 40 minutes and HTRF signal was measured on a Fusion plate reader (Perkin Elmer, Boston, Mass.)

Tyrosine-protein kinase JAK1, sequence (P23458 whole entry, the tested form may be a part): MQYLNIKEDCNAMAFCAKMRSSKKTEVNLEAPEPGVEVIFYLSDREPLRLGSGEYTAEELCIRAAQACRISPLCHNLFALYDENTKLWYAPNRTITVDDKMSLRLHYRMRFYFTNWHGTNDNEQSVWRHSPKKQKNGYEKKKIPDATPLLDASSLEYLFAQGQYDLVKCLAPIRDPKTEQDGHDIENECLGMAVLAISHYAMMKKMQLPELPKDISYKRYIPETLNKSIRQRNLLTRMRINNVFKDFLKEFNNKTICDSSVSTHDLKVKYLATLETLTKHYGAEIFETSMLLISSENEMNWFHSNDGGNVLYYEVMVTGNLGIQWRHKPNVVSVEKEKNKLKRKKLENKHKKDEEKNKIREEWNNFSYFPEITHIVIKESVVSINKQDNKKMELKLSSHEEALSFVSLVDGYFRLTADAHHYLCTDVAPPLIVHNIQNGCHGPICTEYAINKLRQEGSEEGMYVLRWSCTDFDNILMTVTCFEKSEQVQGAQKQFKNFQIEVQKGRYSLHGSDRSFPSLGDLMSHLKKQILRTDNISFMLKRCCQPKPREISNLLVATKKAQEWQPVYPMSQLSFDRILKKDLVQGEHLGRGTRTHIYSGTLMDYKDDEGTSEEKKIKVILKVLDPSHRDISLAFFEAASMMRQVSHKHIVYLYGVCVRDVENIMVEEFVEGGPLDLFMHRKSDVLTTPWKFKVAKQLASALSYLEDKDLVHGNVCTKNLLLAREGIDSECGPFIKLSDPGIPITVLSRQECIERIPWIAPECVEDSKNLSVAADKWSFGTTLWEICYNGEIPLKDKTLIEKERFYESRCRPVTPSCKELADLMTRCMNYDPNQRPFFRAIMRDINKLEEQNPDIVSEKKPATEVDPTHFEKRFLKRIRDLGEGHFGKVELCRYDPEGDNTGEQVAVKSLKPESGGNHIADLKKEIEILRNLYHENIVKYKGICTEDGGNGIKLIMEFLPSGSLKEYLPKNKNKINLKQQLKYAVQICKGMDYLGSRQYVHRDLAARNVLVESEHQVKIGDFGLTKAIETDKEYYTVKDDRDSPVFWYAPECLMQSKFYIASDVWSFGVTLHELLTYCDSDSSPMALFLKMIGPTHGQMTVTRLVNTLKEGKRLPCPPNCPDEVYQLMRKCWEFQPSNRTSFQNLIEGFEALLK

IC50: < 5 nM
SMILES: N#CCC1(n2cc(-c3ncnc4[nH]ccc34)cn2)CN(C2CCN(C(=O)OCC3CCCCC3)CC2)C1
